Experimental findings from patent publication US8604047B2, “Method and composition for treating nodulocystic and conglobate acne vulgaris” (Elorac, Inc., priority 2010, dated 2013) are described below.

Holding throughout (format): in vivo, human
Assay [1] is described as follows: Oral administration to patients with nodulocystic acne. The note with it: most patients. As to the method:
Tablets containing 0.5 mg by weight of finasteride are administered once daily for 12 weeks to patients with nodulocystic acne.
Caplets containing 50 mg by weight of finasteride are administered once a week for 24 weeks to patients with severe nodulocystic acne.

Assay [2] can be described thus: Oral administration to patients with conglobate acne (acne conglobata). How it is done:
Capsules containing 0.05 mg by weight of dutasteride are administered twice daily for 6 months to patients with conglobate acne.
A flavored oral solution incorporating a 0.75 mg by weight of dutasteride per every 5 ml of solution is administered to young patients with acne conglobata once daily for 24 weeks.
Tablets containing 0.1 mg by weight of finasteride are administered once daily for 12 weeks to patients with acne conglobata.

A short description of assay [3]: Topical application by patients with nodulocystic acne. The text has this:
Patients with active nodulocystic acne apply 0.05% by weight finasteride prepared in an alcoholic gel containing 6% polyoxyethylene lauryl ether twice daily for 12 weeks.
An aqueous/alcohol solution containing 20% by weight finasteride is applied once daily by patients with nodulocystic acne.

A short description of assay [4]: Daily oral or topical formulations of 5AR inhibitors in male patients with nodulocystic or conglobate acne.
A short description of assay [5]: Topical cream applied to skin of patients with numerous acne papules, pustules, nodules and cysts. The note with it: 5% dutasteride cream, once daily for 8 weeks, most patients. As to the method: A 5% dutasteride cream is prepared containing water, propylene glycol, bentonite, glycerol stearate, isopropyl myristate and cellulose gum, and applied once daily to the skin of patients with numerous acne papules, pustules, nodules and cysts for 8 weeks. After 8 weeks of such treatment, most patients will have at least a 20% decrease in the number of inflammatory acne lesions.

Consider `CC(C)(C)NC(=O)[C@H]1CC[C@H]2[C@@H]3CC[C@H]4NC(=O)C=C[C@]4(C)[C@H]3CC[C@]12C` [finasteride], for which the “reduction in acne nodules and cysts” value in assay [1] (caplets 50 mg finasteride, once a week for 24 weeks, severe nodulocystic acne) was “marked reduction in acne nodules and cysts”. Besides, in assay [1] (tablets 0.5 mg finasteride, once daily for 12 weeks), the “activity of inflammatory acne lesions at end of treatment” value is listed as “significant decrease in the activity of their inflammatory acne lesions”. Moreover, in assay [2] (tablets 0.1 mg finasteride, oral, once daily for 12 weeks), the “old acne lesions by end of treatment” value was “resolved with only minor scarring”. In addition, the “new acne lesions by end of treatment” value in assay [2] (tablets 0.1 mg finasteride, oral, once daily for 12 weeks, most patients) was “very few new acne lesions”. Also, the “nodules and cysts versus before starting treatment” value in assay [3] (0.05% by weight finasteride alcoholic gel with 6% polyoxyethylene lauryl ether, twice daily for 12 weeks) was “fewer nodules and cysts”. The “improvement in appearance after twelve weeks” value in assay [3] (aqueous/alcohol solution 20% by weight finasteride, once daily, twelve weeks, many patients) is “dramatic improvement in their appearance”. The “improvement observed after two weeks” value in assay [3] (aqueous/alcohol solution 20% by weight finasteride, once daily, two weeks, most patients) was “some improvement”. Also, the “improvement of nodulocystic or conglobate acne” value in assay [4] is “dramatic improvement”.
Turning to `C[C@]12C=CC(=O)N[C@@H]1CC[C@@H]1[C@@H]2CC[C@]2(C)[C@@H](C(=O)Nc3cc(C(F)(F)F)ccc3C(F)(F)F)CC[C@@H]12` [dutasteride], the “resolution of inflammatory nodules, cysts and sinus tracts” value in assay [2] (capsules 0.05 mg dutasteride, oral, twice daily for 6 months) is “resolution of some of their inflammatory nodules, cysts and sinus tracts”. Moreover, the “resolution of conglobate acne at end of treatment” value in assay [2] (oral solution 0.75 mg dutasteride per 5 ml, once daily for 24 weeks, young patients, some patients) is on record as “complete resolution of their conglobate acne”. In addition, in assay [5], the “decrease in the number of inflammatory acne lesions” value is on record as ≥ 20%. Besides, in assay [4], the “improvement of nodulocystic or conglobate acne” value is “dramatic improvement”.
